In brackets after ≈: the same amount, converted by molar mass. Positions of bridges follow the written chain, without caps; N, C: chain ends. Non-standard residues stand in square brackets, D forms with d. Residues, ends and D or L forms follow the SMILES beside them. *: point of attachment. Heptanoyl(5-Me) = CCC(C)CCCC(=O)*; Dab = NCC[C@H](N)C(=O)O

For data set [1] the following is noted: rat, in vivo.
Details of data set [2]: species or system SD rats. The conditions noted are these: rat, in vivo, iv.
Another data set in a line: in vivo. The settings on record: SD, rat.
In data set [3] the test system is A. Baumannii ATCC BAA-1605. The conditions noted are these: 8 mpk BID q12h, tail vein; 24 h after infection.
Description: CD-1 mice (SPF grade, female, 7 weeks old, 27–29 g) were provided by Zhejiang Weitong Lihua Laboratory Animal Technology Co., Ltd. A. Baumannii ATCC BAA-1605 was provided by Nantong Wuxi Apptec Medical Technology Co., Ltd. (Nanjing, China). Experimental animals were admitted to Wuxi AppTec BSL-2 animal facility and subjected to an adaptation period of at least 3 to 4 days. Immunosuppressed mice with neutrophil deficiency were prepared by intraperitoneal injection of cyclophosphamide (150 mg/kg at day -4; 100 mg/kg at day -1). On day 0, the infected bacterial solution was inoculated by intramuscular injection, and 0.1 mL of the bacterial solution was inoculated into the right thigh of each mouse. At 2 h and 24 h after infection, the PME formulations were administered by tail vein according to the experimental protocol. Animals in the blank group were euthanized 2 h after infection. The right thighs of those mice were collected and homogenized. The diluent was cultured overnight and CFUs were counted the next day. Animals in the negative control group and other treatment groups were euthanized 24 h after infection. […] The diluent was cultured overnight and CFUs were counted the next day. […]
The dosages were calculated based on the weight of the mice, and different dosage levels were achieved by adjusting the drug volume accordingly.
For the next data set, the system named is Acinetobacter baumannii. Type of data set: cell-based. From the text:
(§1) In line with the 2021 edition of the United States Clinical and Laboratory Standards Institute (CLSI) guidelines (https://clsi.org/), we employed the broth microdilution method to determine the MIC of the compounds against clinical Gram-negative bacilli. We tested 23 strains of Escherichia coli, including 12 carbapenem-sensitive and 11 drug-resistant strains, and 22 strains of Klebsiella pneumoniae, including 12 carbapenem-sensitive and 10 drug-resistant strains. Additionally, we assessed 20 strains of Acinetobacter baumannii, again including 10 carbapenem-sensitive and 10 drug-resistant strains, and 21 strains of Pseudomonas aeruginosa. Quality control strains used were Escherichia coli ATCC 25922 and Pseudomonas aeruginosa ATCC 27853 [20]. For the preparation of antimicrobial agents, we dissolved seven batches of the test drug in 3 mL of water and subsequently diluted it to a concentration of 500 mg/L. The control drug was prepared according to CLSI requirements. The antibacterial solutions were tested over a concentration range spanning from 0.015 mg/L to 32 mg/L. We utilized cation-adjusted Mueller–Hinton broth (CAMHB) from BD Company, with lot number 9324795.
(§2) Regarding bacterial inoculation, we selected fresh, pure bacterial colonies from Columbia blood agar using the direct colony suspension method, resulting in a turbidity of 0.5 McFarland units. This suspension was then appropriately diluted, yielding a final bacterial concentration of 10^5 CFU/mL. Culturing conditions involved incubation in ambient air at 35 ± 2 °C for a duration of 16–20 h. Results were interpreted in accordance with the European EUCAST breakpoint criteria, where PME sensitivity was defined as ≤2 mg/L and resistance as ≥4 mg/L. Criteria for assessing other tested drugs were provided by the party commissioning the study. The MIC value represented the minimum drug concentration necessary to inhibit bacterial growth. Data analysis was performed using WHONET 5.6 software for statistical evaluation of the drug susceptibility test results.

The test system of another data set is Klebsiella pneumoniae. The format is cell-based.
Description: as §1, §2

In another data set the test system is CD-1 mice. In words: Determination of maximum tolerated dose (MTD). Type of data set: in vivo. The settings on record: male CD-1 mice, n = 3, tail vein, BID (q8h). The protocol:
CD-1 mice, male, 7–8 weeks old, weighing 25–30 g, were purchased from Shanghai Lingchang Laboratory Animal Co. The mice were grouped into n = 3, and different doses of PME were injected into the tail vein of mice via BID (q8h). HA2 prescription (HA2-2.6, HA2-2 and HA2-1.5) and SOP prescription (SOP-2.6, SOP-2 and SOP-1.5) were used for MTD examination.

In general, AUC(0-inf) refers to total exposure, with the tail of the curve extrapolated. The low end stands for less exposure, the high end for more exposure. One may read the Cmax as the peak of the concentration-time curve. The term MRT denotes a mean duration of stay, worked out from the concentration-time curve. Usually Tmax stands for the time from dosing to the highest level. As usually defined, the Vd is a proportionality between amount in the body and measured concentration, not a real space. For orientation: clearance means a measure of how efficiently the substance is removed, as volume per time. Read a low clearance as a low capacity for elimination. For orientation: half-life means how long it takes for the measured level to halve. A high value points to slow loss. The MIC50 is an inhibitory concentration at the 50% level, which refers to growth in some studies and to a panel of isolates in others. In the case of `CCC(C)CCCC(=O)N[C@@H](CCN)C(=O)N[C@H](C(=O)N[C@@H](CCN)C(=O)N[C@H]1CCNC(=O)[C@H]([C@@H](C)O)NC(=O)[C@H](CCN)NC(=O)[C@H](CCN)NC(=O)[C@H](CC(C)C)NC(=O)[C@@H](CC(C)C)NC(=O)[C@H](CCN)NC1=O)[C@@H](C)O` (stereo partly drawn) ({Heptanoyl(5-Me)}-[Dab]T[Dab][Dab][Dab][dL]L[Dab][Dab]T; lactam 4-C), the “intersection point between distribution phase and elimination phase” value in data set [1] is 0.5 h. The gastric mucosal bleeding entry in data set [2] is given as “showed gastric mucosal bleeding”. Further, in the data set “in vivo”, the AUC(0-inf) came to 12300 ± 2120 ng·h/mL, the highest level (Cmax) was 10300 ± 1780 ng/mL, the MRT is 1.63 ± 0.15 h and the Tmax was determined as 4.8 min. In the data set “in vivo”, this compound gave a Vd of 0.404 ± 0.0545 L/kg, a clearance of 4.16 ± 0.78 mL/min/kg and a half-life of 1.33 ± 0.05 h. In addition, the “change of bacterial levels” value in data set [3] is reported as “did not increase bacterial levels”. In addition, in the data set with Acinetobacter baumannii, the MIC50 was 0.5 µg/mL (≈ 0.433 µM) and the MIC range is 0.5 to 1 µg/mL. Besides, the MIC50 in the data set with Klebsiella pneumoniae was determined as 0.5 µg/mL (≈ 0.433 µM). Besides, the “MTD / tolerated dose” value with CD-1 mice turned out to be 10 mpk.
